ChEMBL document CHEMBL3997819, “Synthesis and biological evaluation of heterocyclic analogues of pregnenolone as novel anti-osteoporotic agents” (2017)
Activity calls are given as the source filed them. The rule behind the calls is not given here.

Legend:
[1] = system: Calvarial osteoblast; assay: Antiosteoporotic activity in mouse calvarial osteoblasts assessed as enhancement in ALP activity at 1 pM to 1 uM after 48 hrs by PNPP substrate-based spectrophotometric method relative to control; assay type: functional, cell-based
[2] = system: Calvarial osteoblast; assay: Antiosteoporotic activity in mouse calvarial osteoblasts assessed as enhancement in ALP activity at 1 pM after 48 hrs by PNPP substrate-based spectrophotometric method relative to control; assay type: functional
[3] = system: Calvarial osteoblast; assay: Antiosteoporotic activity in mouse calvarial osteoblasts assessed as upregulation of BMP-2 mRNA levels at 1 pM measured at 24 hrs by real-time quantitative PCR method relative to control; assay type: functional
[4] = system: Calvarial osteoblast; assay: Antiosteoporotic activity in mouse calvarial osteoblasts assessed as increase in mineral nodule formation at 1 to 100 pM after 21 days by alizarin red-S dye-based optical densitometry relative to control; assay type: functional, cell-based
[5] = system: Calvarial osteoblast; assay: Antiosteoporotic activity in mouse calvarial osteoblasts assessed as enhancement in ALP activity at 1 nM to 1 uM after 48 hrs by PNPP substrate-based spectrophotometric method relative to control; assay type: functional, cell-based
[6] = system: Calvarial osteoblast; assay: Antiosteoporotic activity in mouse calvarial osteoblasts assessed as enhancement in ALP activity at 100 pM after 48 hrs by PNPP substrate-based spectrophotometric method relative to control; assay type: functional
[7] = system: Calvarial osteoblast; assay: Antiosteoporotic activity in mouse calvarial osteoblasts assessed as upregulation of OCN mRNA levels at 1 pM measured at 24 hrs by real-time quantitative PCR method relative to control; assay type: functional
[8] = system: Calvarial osteoblast; assay: Antiosteoporotic activity in mouse calvarial osteoblasts assessed as upregulation of Runx-2 mRNA levels at 1 pM measured at 24 hrs by real-time quantitative PCR method relative to control; assay type: functional

Which Activity [1] does the source give for `CC(=O)O[C@H]1CC[C@@]2(C)C(=CC[C@H]3[C@@H]4CC[C@H](C(C)=O)[C@@]4(C)CC[C@@H]32)C1` here?
The Activity was “Active”.

With `C/C(=N\O)[C@H]1CC[C@H]2[C@@H]3CC=C4C[C@@H](O)CC[C@]4(C)[C@H]3CC[C@]12C` as the molecule, how does the Activity [1] read?
Its Activity is “Active”.

Which Activity [1] does the source give for `C[C@]12CC[C@H]3[C@@H](CC=C4C[C@@H](O)CC[C@@]43C)[C@@H]1CC[C@@H]2c1ccc2cc(Br)cc(Br)c2n1` here?
The Activity was “Active”.

`C[C@]12CC[C@H]3[C@@H](CC=C4C[C@@H](O)CC[C@@]43C)[C@@H]1CC[C@@H]2c1ccc2ccccc2n1` was tested. Which Activity [2] did it give?
The Activity was 100%.

What about the “fold change (FC)” value [3] of the same molecule?
The value was 2.

What about the Activity [4] of the same molecule?
The Activity was “Active”.

What about the Activity [5] of the same molecule?
Its Activity is “Active”.

And the Activity [6]?
The Activity was 85%.

What about the “fold change (FC)” value [7] of the same molecule?
The value was 3.

What about the “fold change (FC)” value [8] of the same molecule?
The value was 1.5.
